From patent publication US20230118497A1, “PYRAZOLE-CONTAINING POLYCYCLIC DERIVATIVE INHIBITOR, PREPARATION METHOD THEREFOR AND APPLICATION THEREOF” (Shanghai Hansoh Biomedical Co., Ltd., priority 2019, published 2023)

Assays:
1321N1-hP2X3 receptor = molecular target: T1, 1321N1-hP2X3 receptor (Homo sapiens, UniProt P56373); assay: Calcium ion mobility (FLIPR) in cells stably expressing 1321N1-hP2X3 receptors; assay type: cell-based; conditions: calcium signal, agonist at EC80
T1 construct: host or cells: 1321N1
T1 sequence (P56373 1-397): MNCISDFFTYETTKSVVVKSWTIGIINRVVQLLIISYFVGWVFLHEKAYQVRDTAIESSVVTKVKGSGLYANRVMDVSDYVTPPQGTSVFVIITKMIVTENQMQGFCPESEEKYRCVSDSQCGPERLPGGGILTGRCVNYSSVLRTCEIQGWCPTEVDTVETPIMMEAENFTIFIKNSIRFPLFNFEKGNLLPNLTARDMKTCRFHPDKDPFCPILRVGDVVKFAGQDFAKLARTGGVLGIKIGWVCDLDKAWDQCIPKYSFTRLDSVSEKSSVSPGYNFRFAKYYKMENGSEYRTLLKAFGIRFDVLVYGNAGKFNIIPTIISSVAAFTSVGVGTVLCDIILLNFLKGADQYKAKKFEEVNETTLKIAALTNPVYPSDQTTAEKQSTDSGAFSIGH
Protocol: Test Example 1. Determination of the Effect of the Compounds of the Present Invention on Calcium Ion Mobility in Cells Stably Expressing 1321N1-hP2X3 Receptors
To determine the inhibitory activity of the compounds on 1321N1-hP2X3 receptor.
Stably transfected cell line: 1321N1-hP2X3 (supplied by Shanghai ChemPartner Chemical Research Co., Ltd.).
Assay buffer: 1*HBSS+20 mM HEPES;
Cell culture medium: DMEM+10% FBS+75 µg/mL Hygromycin B+300 µg/mL G418;
Plating medium: DMEM+10% DPBS;
0.5*Dye: 10*Dye stock+1.25 Probenecid+1*assay buffer+0.5 U/mL ATP hydrolytic enzyme;
2. The cells were cultured to 70%-90% confluency in the cell culture medium at 37° C., 5% CO2. The medium was discarded, and the cells were added with 2 mL of Versene, and the cells were placed in an incubator at 37° C. for 2 to 5 min. The cells were collected by addition of 10 mL of plating medium and counted. The cells were seeded to the 384-well assay plate by addition of 50 μL solution (a density of 1×10^4 cells/well) to each well, and incubated for 16 to 24 hours (at least overnight).
3. The medium was discarded, and 30 μL of 1× dye was added. The cells were incubated at 37° C. in the dark for 60 min.
4. The compound powder was dissolved in DMSO to obtain a 20 mM stock solution. 180× compound with required concentration was formulated, and diluted in gradient for concentration points.
5. Preparation of compound plate: 500 nL of 180× compound was transferred to the compound plate (source plate for FLIPR) using ECHO. 30 μL of assay buffer was added to each well, and the plate was shaken gently for 20 to 40 minutes.
6. Determination: 15 μL of 3× compound was taken from each well and added to the cell plate. The samples were added by FLIPR instrument, and the calcium signals were detected. After 15 minutes, 22.5 μL of 3× agonist (EC80 concentration) was added to each well and the calcium signals were detected.
The calcium signal values were determined by FLIPR. The ratio of the 340/510 nm wavelength signals to 380/510 nm wavelength signals was used as the calculated results for each sampling time point in the experiment. The calculation of maximum minus minimum was derived from the ratio signal curve.
The percent inhibition rate and ten-point concentration data were fitted to the parametric nonlinear logistic equation by using GraphPad prism to calculate the IC50 values of the compounds.

[1] = molecular target: T2, CYP450 enzyme isoform 2C19 (Homo sapiens, UniProt P33261); assay: CYP enzyme single-point inhibition assay, 2C19; assay type: in vitro ADME; conditions: human liver microsome, single-point method
T2 construct: single-point method using human liver microsome incubation system; from tissue; host or cells: human liver microsomes
Protocol: Test Example 7. CYP Enzyme Single-Point Inhibition Assay
The inhibition of the compounds on CYP450 enzyme isoformwas rapidly predicted by single-point method using human liver microsome incubation system.
2.5 mM NADPH: 4.165 mg of NADPH (reduced nicotinamide adenine dinucleotide phosphate) was weighed, followed by addition of 100 mM phosphate buffer to 2 mL. 0.25 mg/mL microsome solution: 4 mL of 100 mM phosphate buffer was added to 50 μL of 20 mg/mL microsome solution and mixed well.
The test compound of the Example was weighed, diluted to 10 mM with DMSO and then to 100 μM with 100 mM phosphate buffer.
1. 40 μL of liver microsome, 10 μL of substrate and 10 μL of the test compound were added to a 96-well plate and pre-incubated for 3 min.
2. 40 μL of NADPH was added.
3. 300 μL of acetonitrile stop solution containing internal standard was added at 20 min.
4. The sample was centrifuged and injected.

[2] = Pharmacokinetic assay in Balb/C mice; assay type: in vivo; conditions: male, mouse, po, p.o. 5 mg/kg, plasma, 0.5% CMC-Na (1% Tween 80); for AUC(0-t): read-out: Area under curve AUC0-t; for MRT inf: read-out: Average residence time MRT0-∞; for half-life: read-out: Half life t1/2 (converted); for Tmax: read-out: Peak time tmax; for Cmax: read-out: Plasma concentration Cmax
Protocol: Test Example 3. Pharmacokinetic Assay in Balb/C Mice
Balb/C mice were used as test animals. The pharmacokinetic behavior of the compounds of Examples was studied in mouse body (plasma) by orally administration at a dose of 5 mg/kg.
Male Balb/C mice (6 mice per group), purchased from Shanghai Jiesijie Laboratory Animal Co., LTD, with Certificate No.: SCXK (Shanghai) 2013-0006 N0.311620400001794.
5 g of hydroxyethyl cellulose (HEC, CMC-Na, viscosity: 800-1200 Cps) was weighed and dissolved in 1000 mL of purified water, followed by addition of 10 g of Tween80.
After an overnight fast, male Balb/C mice were administered p.o. with the test compound at a dose of 5 mg/kg and a volume of 10 mL/kg.
0.04 mL of blood was taken from the orbit of the mouse before administration and at 0, 0.5, 1, 2, 4, 6, 8 and 24 hours after administration. The samples were stored in EDTA-K2 tubes, and centrifuged for 6 minutes at 4° C., 6000 rpm to separate the plasma. The plasma samples were stored at −80° C.
1) 160 μL of acetonitrile was added to 20 μL of the plasma sample for precipitation, and then the mixture was centrifuged at 3500×g for 5 to 20 minutes. 2) After the above process, 100 μL of the supernatant was taken to analyze the concentration of the test compound by LC/MS/MS.
2.7 Liquid Chromatography Analysis • Liquid chromatography condition: Shimadzu LC-20AD pump • Mass spectrometry condition: AB Sciex API 4000 mass spectrometer • Chromatographic column: phenomenex Gemiu 5 um C18 50×4.6 mm • Mobile phase: Eluent A was 0.1% formic acid in water, and Eluent B was acetonitrile • Flow rate: 0.8 mL/min • Elution time: 0-4.0 minutes the eluent is as follows:
The main parameters of pharmacokinetics were calculated by WinNonlin 8.2.

T2 sequence (P33261 whole entry, canonical isoform): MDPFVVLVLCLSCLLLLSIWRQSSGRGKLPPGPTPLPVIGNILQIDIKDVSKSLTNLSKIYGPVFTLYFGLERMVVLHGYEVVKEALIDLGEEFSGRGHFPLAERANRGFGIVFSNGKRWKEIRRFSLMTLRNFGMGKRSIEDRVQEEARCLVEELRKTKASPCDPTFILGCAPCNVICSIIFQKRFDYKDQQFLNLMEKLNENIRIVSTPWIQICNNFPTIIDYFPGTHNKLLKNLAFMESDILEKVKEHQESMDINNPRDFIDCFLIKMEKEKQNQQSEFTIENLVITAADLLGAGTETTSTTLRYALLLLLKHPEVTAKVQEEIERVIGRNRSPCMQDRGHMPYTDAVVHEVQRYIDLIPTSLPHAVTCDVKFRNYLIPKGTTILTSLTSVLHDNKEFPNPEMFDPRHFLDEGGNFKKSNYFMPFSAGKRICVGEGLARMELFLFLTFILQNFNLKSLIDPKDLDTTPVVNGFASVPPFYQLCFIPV

SMILES | IC50 (1321N1-hP2X3 receptor) | IC50 [1] | AUC(0-t) [2] | MRT inf [2] | half-life [2] | Tmax [2] | Cmax [2]
N#Cc1cnn2c3nc(C(F)(F)F)ccc3c(=O)n(CC(=O)Nc3ccc(F)cn3)c12 [Example 80, 2-(3-Cyano-5-oxo-8-(trifluoromethyl)pyrazolo[1,5-a]pyrido[3,2-e]pyrimidin-4(5H)-yl)-N-(5-fluoropyridin-2-yl)acetamide] | 64.3 nM |  |  |  |  |  | 
O=C(Cn1c(=O)c2ccc(C(F)(F)F)nc2n2nccc12)Nc1ccc(F)cn1 [Example 78, N-(5-Fluoropyridin-2-yl)-2-(5-oxo-8-(trifluoromethyl)pyrazolo[1,5-a]pyrido[3,2-e]pyrimidin-4(5H)-yl)acetamide] | 49 nM | > 100000 nM | 5040 ng·h/mL | 2.5 h | 1.6 h | 1 h | 1290 ng/mL
CCc1cc2n(CC(=O)Nc3ccc(F)cn3)c(=O)c3ccc(C(F)(F)F)nc3n2n1 [Example 34, 2-(2-Ethyl-5-oxo-8-(trifluoromethyl)pyrazolo[1,5-a]pyrido[3,2-e]pyrimidin-4(5H)-yl)-N-(5-fluoropyridin-2-yl)acetamide] | 63.4 nM | > 100000 nM | 7580 ng·h/mL | 2.3 h | 1.4 h | 1 h | 2360 ng/mL
N#Cc1cc2n(CC(=O)Nc3ccc(F)cn3)c(=O)c3ccc(C(F)(F)F)nc3n2n1 [Example 68, 2-(2-Cyano-5-oxo-8-(trifluoromethyl)pyrazolo[1,5-a]pyrido[3,2-e]pyrimidin-4(5H)-yl)-N-(5-fluoropyridin-2-yl)acetamide] | 32.5 nM | > 100000 nM | 10200 ng·h/mL | 3.8 h | 1.8 h | 2 h | 1830 ng/mL
O=C(Cn1c(=O)c2ccc(C(F)(F)F)nc2n2nc(Br)cc12)Nc1ccc(F)cn1 [Example 61-A, 2-(2-bromo-5-oxo-8-(trifluoromethyl)pyrazolo[1,5-a]pyrido[3,2-e]pyrimidin-4(5H)-yl)-N-(5-fluoropyridin-2-yl)acetamide] | 76.4 nM | > 100000 nM | 30500 ng·h/mL | 5.6 h | 4.6 h | 2 h | 3430 ng/mL
